Data: patent US20160222056A1, “SUBSTITUTED PHENYLALANINE DERIVATIVES” (BAYER PHARMA AKTIENGESELLSCHAFT, priority 2013, published 2016)
Counter-ions that a name gives are not always drawn.

Assays:
Type in all cases: biochemical
human factor XIa = molecular target: T1, human factor XIa (Homo sapiens, UniProt P03951); experiment: Measurement of FXIa inhibition (fluorogenic peptide substrate); conditions: human factor XIa from Kordia, substrate Boc-Glu(OBzl)-Ala-Arg-AMC, 30 min at 22° C.; read-out: IC50 (FXIa inhibition)
T1 construct: purchased Kordia
Experimental: To determine the factor XIa inhibition of the substances according to the invention, a biochemical test system is used which utilizes the reaction of a peptidic factor XIa substrate to determine the enzymatic activity of human factor XIa. Here, factor XIa cleaves from the peptic factor XIa substrate the C-terminal aminomethylcoumarin (AMC), the fluorescence of which is measured. The determinations are carried out in microtitre plates.
(§1) Test substances are dissolved in dimethyl sulphoxide and serially diluted in dimethyl sulphoxide (3000 μM to 0.0078 μM; resulting final concentrations in the test: 50 μM to 0.00013 μM). In each case 1 μl of the diluted substance solutions are placed into the wells of white microtitre plates from Greiner (384 wells). Subsequently, the following are added successively: 20 μl of assay buffer (50 mmol/1 Tris buffer pH 7.4; 100 mmol/1 sodium chloride; 5 mmol/1 calcium chloride; 0.1% bovine serum albumin) and 20 μl of factor XIa from Kordia (0.45 nM in assay buffer). After 15 min of incubation, the enzyme reaction is started by addition of 20 μl of the factor XIa substrate Boc-Glu(OBzl)-Ala-Arg-AMC dissolved in assay buffer (10 μM in assay buffer) from Bachem, the mixture is incubated at room temperature (22° C.) for 30 min and fluorescence is then measured (excitation: 360 nm, emission: 460 nm). The measured emissions of the test batches with test substance are compared to those of control batches without test substance (only dimethyl sulphoxide instead of test substance in dimethyl sulphoxide), and the IC50 values are calculated from the concentration/activity relationships.

human and animal plasma = experiment: Anticoagulatory activity: activated partial thromboplastin time (aPTT) in plasma; conditions: in vitro in plasma, C.K. Prest kit, 37° C. for 3 minutes; plasma species of Table B not stated
Experimental: The anticoagulatory activity of the test substances is determined in vitro in human and animal plasma (for example mouse, rat, rabbit, pig and dog plasma). To this end, blood is drawn off in a mixing ratio of sodium citrate/blood of 1:9 using a 0.11 molar sodium citrate solution as receiver. Immediately after the blood has been drawn off, it is mixed thoroughly and centrifuged at about 4000 g for 15 minutes. The supernatant is pipetted off.
The activated partial thromboplastin time (aPTT) is determined in the presence of varying concentrations of test substance or the corresponding solvent using a commercial test kit (C.K. Prest from Diagnostica Stago). The test compounds are incubated with the plasma and the PTT reagent (cephalin, kaolin) at 37° C. for 3 minutes. Coagulation is then started by addition of 25 mM aqueous calcium chloride, and the time when coagulation occurs is determined. The concentration of test substance which brings about a 1.5-fold extension of the aPTT is determined.

human plasmin = molecular target: T2, human plasmin (Homo sapiens, UniProt P00747); experiment: Measurement of plasmin inhibition (fluorogenic peptide substrate); conditions: plasmin from Kordia, substrate MeOSuc-Ala-Phe-Lys-AMC, 30 min at 22° C.
T2 construct: purchased Kordia
Experimental: The plasmin inhibition of the inventive substances is determined using a biochemical test system which utilizes the reaction of a peptidic plasmin substrate to determine the enzymatic activity of human plasmin. Here, plasmin cleaves from the peptic plasmin substrate the C-terminal aminomethylcoumarin (AMC), the fluorescence of which is measured. The determinations are carried out in microtitre plates.
as §1, with “plasmin” for “factor XIa”, “(0.3 μg/ml” for “(0.45 nM”, “MeOSuc-Ala-Phe-Lys-AMC” for “Boc-Glu(OBzl)-Ala-Arg-AMC”, “(150” for “(10”

T2 sequence (P00747 581-810 limits assumed): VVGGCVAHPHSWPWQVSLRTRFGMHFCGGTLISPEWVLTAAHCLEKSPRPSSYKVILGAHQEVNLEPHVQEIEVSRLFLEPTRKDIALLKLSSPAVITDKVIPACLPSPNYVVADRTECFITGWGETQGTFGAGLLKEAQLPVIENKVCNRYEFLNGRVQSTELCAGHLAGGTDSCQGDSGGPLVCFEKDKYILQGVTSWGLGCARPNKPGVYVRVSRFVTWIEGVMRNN
T2 sequence (P00747 97-580 partner limits assumed): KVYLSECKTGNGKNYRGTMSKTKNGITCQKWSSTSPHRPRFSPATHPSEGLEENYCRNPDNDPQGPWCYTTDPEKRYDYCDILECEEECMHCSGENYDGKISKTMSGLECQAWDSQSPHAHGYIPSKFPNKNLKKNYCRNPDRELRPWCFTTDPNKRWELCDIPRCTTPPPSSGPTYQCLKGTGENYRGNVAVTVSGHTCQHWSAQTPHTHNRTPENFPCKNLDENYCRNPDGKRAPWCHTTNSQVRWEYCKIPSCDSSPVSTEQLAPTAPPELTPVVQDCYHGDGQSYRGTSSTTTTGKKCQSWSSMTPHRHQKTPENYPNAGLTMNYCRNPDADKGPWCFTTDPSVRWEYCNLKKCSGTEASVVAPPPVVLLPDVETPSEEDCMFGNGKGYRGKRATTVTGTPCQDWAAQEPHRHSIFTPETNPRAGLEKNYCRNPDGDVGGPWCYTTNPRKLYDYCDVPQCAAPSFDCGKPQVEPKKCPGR
T1 sequence (P03951 388-625 limits assumed): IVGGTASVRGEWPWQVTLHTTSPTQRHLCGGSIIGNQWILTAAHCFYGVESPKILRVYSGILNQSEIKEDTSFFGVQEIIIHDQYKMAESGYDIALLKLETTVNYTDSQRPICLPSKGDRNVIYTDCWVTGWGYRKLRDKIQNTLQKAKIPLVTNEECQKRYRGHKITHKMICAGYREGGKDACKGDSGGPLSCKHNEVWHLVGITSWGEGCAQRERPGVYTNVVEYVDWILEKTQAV
T1 sequence (P03951 19-387 partner limits assumed): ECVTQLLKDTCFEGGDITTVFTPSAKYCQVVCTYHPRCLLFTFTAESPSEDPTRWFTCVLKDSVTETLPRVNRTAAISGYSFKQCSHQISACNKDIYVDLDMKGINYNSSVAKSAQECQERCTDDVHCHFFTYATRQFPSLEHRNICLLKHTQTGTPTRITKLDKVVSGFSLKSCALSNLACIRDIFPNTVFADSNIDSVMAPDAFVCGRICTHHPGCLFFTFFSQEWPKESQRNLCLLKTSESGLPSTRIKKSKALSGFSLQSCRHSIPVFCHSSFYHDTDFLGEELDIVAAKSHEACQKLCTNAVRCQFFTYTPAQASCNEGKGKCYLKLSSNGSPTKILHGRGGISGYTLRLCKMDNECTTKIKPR

SMILES	IC50 (human factor XIa)	IC50 (human plasmin)	aPTT (concentration of test substance which brings about a 1.5-fold extension of the aPTT) (human and animal plasma)
Cc1nc(C(=O)N[C@@H]2CCN(C)C2)ccc1-c1ccc(C[C@H](NC(=O)[C@H]2CC[C@H](CN)CC2)C(=O)Nc2ccc(-c3nn[nH]n3)cc2)cc1 [Example 19, N-alpha-{[trans-4-(Aminomethyl)cyclohexyl]carbonyl}-4-(2-methyl-6-{[(3R)-1-methylpyrrolidin-3-yl]carbamoyl}pyridin-3-yl)-N-[4-(2H-tetrazol-5-yl)phenyl]-L-phenylalaninamide hydrochloride]	4.5 nM		0.12 µmol/L
Cc1cc(C(=O)NC2CNCC(F)(F)C2)ncc1-c1ccc(C[C@H](NC(=O)[C@H]2CC[C@H](CN)CC2)C(=O)Nc2ccc(-c3nnn[nH]3)cc2)cc1 (stereo partly drawn) [Example 20, N-alpha-{[trans-4-(Aminomethyl)cyclohexyl]carbonyl}-4-{6-[(5,5-difluoropiperidin-3-yl)carbamoyl]-4-methylpyridin-3-yl}-N-[4-(1H-tetrazol-5-yl)phenyl]-L-phenylalaninamide hydrochloride]	3.9 nM		0.13 µmol/L
Cc1nc(C(=O)NC2CCC(O)CC2)ccc1-c1ccc(C[C@H](NC(=O)[C@H]2CC[C@H](CN)CC2)C(=O)Nc2ccc(-c3nn[nH]n3)cc2)cc1 (stereo partly drawn) [Example 22, N-alpha-{[trans-4-(Aminomethyl)cyclohexyl]carbonyl}-4-{6-[(4-hydroxycyclohexyl)carbamoyl]-2-methylpyridin-3-yl}-N-[4-(2H-tetrazol-5-yl)phenyl]-L-phenylalaninamide hydrochloride]	2.5 nM		0.16 µmol/L
Cc1cc(C(=O)Nc2ccn(C)n2)ncc1-c1ccc(C[C@H](NC(=O)[C@H]2CC[C@H](CN)CC2)C(=O)Nc2ccc(-c3nnn[nH]3)cc2)cc1 [Example 23, N-alpha-{[trans-4-(Aminomethyl)cyclohexyl]carbonyl}-4-{4-methyl-6-[(1-methyl-1H-pyrazol-3-yl)carbamoyl]pyridin-3-yl}-N-[4-(1H-tetrazol-5-yl)phenyl]-L-phenylalaninamide hydrochloride]	2.5 nM	4.5 nM	0.17 µmol/L
Cc1cc(C(=O)N2CCNC(C)C2)ncc1-c1ccc(C[C@H](NC(=O)[C@H]2CC[C@H](CN)CC2)C(=O)Nc2ccc(-c3nnn[nH]3)cc2)cc1 (stereo partly drawn) [Example 25, N-alpha-{[trans-4-(Aminomethyl)cyclohexyl]carbonyl}-4-{4-methyl-6-[(3-methylpiperazin-1-yl)carbonyl]pyridin-3-yl}-N-[4-(1H-tetrazol-5-yl)phenyl]-L-phenylalaninamide hydrochloride]	4.2 nM		0.18 µmol/L
Cc1nc(C(=O)N[C@H](C)CO)ccc1-c1ccc(C[C@H](NC(=O)[C@H]2CC[C@H](CN)CC2)C(=O)Nc2ccc(-c3nn[nH]n3)cc2)cc1 [Example 29, N-alpha-{[trans-4-(Aminomethyl)cyclohexyl]carbonyl}-4-(6-{[(2R)-1-hydroxypropan-2-yl]carbamoyl}-2-methylpyridin-3-yl)-N-[4-(2H-tetrazol-5-yl)phenyl]-L-phenylalaninamide hydrochloride]	2.4 nM	10 nM	
Cc1cc(C(=O)N2CCN(C)CC2)ncc1-c1ccc(C[C@H](NC(=O)[C@H]2CC[C@H](CN)CC2)C(=O)Nc2ccc(-c3nnn[nH]3)cc2)cc1 [Example 33, N-alpha-{[trans-4-(Aminomethyl)cyclohexyl]carbonyl}-4-{4-methyl-6-[(4-methylpiperazin-1-yl)carbonyl]pyridin-3-yl}-N-[4-(1H-tetrazol-5-yl)phenyl]-L-phenylalaninamide hydrochloride]	4.2 nM		0.44 µmol/L

Continued by falling IC50 (human factor XIa), values first:

IC50 (human factor XIa)	IC50 (human plasmin)	SMILES	aPTT (concentration of test substance which brings about a 1.5-fold extension of the aPTT) (human and animal plasma)
20 nM		Cc1cc(C(=O)N[C@@H]2CCCNC2=O)ncc1-c1ccc(C[C@H](NC(=O)[C@H]2CC[C@H](CN)CC2)C(=O)Nc2ccc3[nH]c(=O)[nH]c3c2)cc1 [Example 28, N-alpha-{[trans-4-(Aminomethyl)cyclohexyl]carbonyl}-4-(4-methyl-6-{[(3R)-2-oxopiperidin-3-yl]carbamoyl}pyridin-3-yl)-N-(2-oxo-2,3-dihydro-1H-benzimidazol-5-yl)-L-phenylalaninamide hydrochloride]	0.39 µmol/L
19 nM		Cc1nc(C(=O)NC2CCC(N(C)C)CC2)ccc1-c1ccc(C[C@H](NC(=O)[C@H]2CC[C@H](CN)CC2)C(=O)Nc2ccc3[nH]c(=O)[nH]c3c2)cc1 (stereo partly drawn) [Example 27, N-alpha-{[trans-4-(Aminomethyl)cyclohexyl]carbonyl}-4-(6-{[4-(dimethylamino)cyclohexyl]-carbamoyl}-2-methylpyridin-3-yl)-N-(2-oxo-2,3-dihydro-1H-benzimidazol-5-yl)-L-phenylalaninamide hydrochloride]	0.22 µmol/L
15.5 nM	1.8 nM	Cc1nc(C(=O)NC(C)C)ccc1-c1ccc(C[C@H](NC(=O)[C@H]2CC[C@H](CN)CC2)C(=O)Nc2ccc3[nH]c(=O)[nH]c3c2)cc1 [Example 40, N-alpha-{[trans-4-(Aminomethyl)cyclohexyl]carbonyl}-4-[6-(isopropylcarbamoyl)-2-methylpyridin-3-yl]-N-(2-oxo-2,3-dihydro-1H-benzimidazol-5-yl)-L-phenylalaninamide hydrochloride]	
6 nM		CCN(CC)CCCNC(=O)c1ccc(-c2ccc(C[C@H](NC(=O)[C@H]3CC[C@H](CN)CC3)C(=O)Nc3ccc(-c4nn[nH]n4)cc3)cc2)c(C)n1 [Example 24, N-alpha-{[trans-4-(Aminomethyl)cyclohexyl]carbonyl}-4-(6-{[3-(diethylamino)propyl]-carbamoyl}-2-methylpyridin-3-yl)-N-[4-(2H-tetrazol-5-yl)phenyl]-L-phenylalaninamide hydrochloride]	0.17 µmol/L
1.3 nM		Cc1cc(C(=O)N[C@@H]2CCCNC2=O)ncc1-c1ccc(C[C@H](NC(=O)[C@H]2CC[C@H](CN)CC2)C(=O)Nc2ccc(-c3nnn[nH]3)cc2)cc1 [Example 21, N-alpha-{[trans-4-(Aminomethyl)cyclohexyl]carbonyl}-4-(4-methyl-6-{[(3R)-2-oxopiperidin-3-yl]carbamoyl}pyridin-3-yl)-N-[4-(1H-tetrazol-5-yl)phenyl]-L-phenylalaninamide hydrochloride]	0.15 µmol/L
1.3 nM		Cc1nc(C(=O)N[C@@H]2CCNC2=O)ccc1-c1ccc(C[C@H](NC(=O)[C@H]2CC[C@H](CN)CC2)C(=O)Nc2ccc(-c3nn[nH]n3)cc2)cc1 [Example 26, N-alpha-{[trans-4-(Aminomethyl)cyclohexyl]carbonyl}-4-(2-methyl-6-{[(3R)-2-oxopyrrolidin-3-yl]carbamoyl}pyridin-3-yl)-N-[4-(2H-tetrazol-5-yl)phenyl]-L-phenylalaninamide hydrochloride]	0.22 µmol/L
